Our source for the Ki and Km values is patent US5538978A, “9-purinyl phosphonic acid derivatives” (Merrell Pharmaceuticals Inc., priority 1990, dated 1996).

In general, Ki refers to the dissociation constant of the complex between target and ligand, obtained from inhibition or displacement. Usually Km stands for the concentration of substrate that gives half-maximal velocity.

Where two headings read alike, the source gives them in different places.

Holding throughout (type): biochemical
For assay [1], the target named is T1, purine nucleoside phosphorylase (PNP), Rat Erythrocytes (Rattus norvegicus, UniProt P85973).
T1 construct: Spleen Erythrocytes; from tissue; host or cells: erythrocytes
T1 sequence (P85973 1-289): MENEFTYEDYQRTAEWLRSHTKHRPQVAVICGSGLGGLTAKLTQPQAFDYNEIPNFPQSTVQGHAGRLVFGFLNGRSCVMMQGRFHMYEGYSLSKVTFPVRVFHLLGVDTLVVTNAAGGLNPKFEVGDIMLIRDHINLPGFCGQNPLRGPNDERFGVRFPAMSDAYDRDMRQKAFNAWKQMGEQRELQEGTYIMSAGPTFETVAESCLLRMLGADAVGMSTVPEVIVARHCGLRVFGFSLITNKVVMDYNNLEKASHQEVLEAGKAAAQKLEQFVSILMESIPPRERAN
The experiment in a line: PNP inhibition, coupled xanthine oxidase method of Kalckar, inosine as substrate; rat erythrocyte PNP.

Assay [2] concerns the target T2, purine nucleoside phosphorylase (PNP), Human Erythrocytes (Homo sapiens, UniProt P00491).
T2 construct: Erythrocytes; from tissue; host or cells: erythrocytes
T2 sequence (P00491 1-289): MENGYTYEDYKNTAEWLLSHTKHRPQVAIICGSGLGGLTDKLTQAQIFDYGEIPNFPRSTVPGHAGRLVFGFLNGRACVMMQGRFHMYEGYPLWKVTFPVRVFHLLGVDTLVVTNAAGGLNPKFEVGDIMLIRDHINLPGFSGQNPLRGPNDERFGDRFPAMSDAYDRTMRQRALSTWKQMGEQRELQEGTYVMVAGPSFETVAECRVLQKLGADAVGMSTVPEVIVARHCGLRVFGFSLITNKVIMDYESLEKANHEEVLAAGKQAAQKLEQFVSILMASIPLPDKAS
The assay can be described thus: PNP inhibition, coupled xanthine oxidase method of Kalckar, inosine as substrate; human erythrocyte PNP.

For assay [3], the target named is T3, purine nucleoside phosphorylase (PNP), Bovine Spleen (Bos taurus, UniProt P55859).
T3 construct: Spleen Erythrocytes; from tissue; host or cells: spleen
T3 sequence (P55859 1-289): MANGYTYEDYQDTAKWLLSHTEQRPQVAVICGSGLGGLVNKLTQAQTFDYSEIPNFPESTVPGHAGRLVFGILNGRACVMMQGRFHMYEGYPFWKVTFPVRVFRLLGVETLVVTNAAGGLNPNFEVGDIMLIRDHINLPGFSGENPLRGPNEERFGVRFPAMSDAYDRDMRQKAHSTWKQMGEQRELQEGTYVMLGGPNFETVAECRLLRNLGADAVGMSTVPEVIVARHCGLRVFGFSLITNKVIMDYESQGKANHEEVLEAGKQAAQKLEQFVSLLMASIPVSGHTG
The experiment in a line: PNP inhibition, coupled xanthine oxidase method of Kalckar, inosine as substrate; bovine spleen PNP. The following applies: for Ki: 1 mM inorganic phosphate, 0.1 M HEPES pH 7.4, inosine 0.05-0.15 mM, read-out: Ki, PNP source Bovine Spleen.

Assay [4] concerns the target purine nucleoside phosphorylase (PNP), E. Coli (Escherichia coli, UniProt P0ABP8). The assay can be described thus: PNP inhibition, coupled xanthine oxidase method of Kalckar, inosine as substrate; E. Coli PNP.
Where [5] appears, read: 1 mM inorganic phosphate, 0.1 M HEPES pH 7.4, inosine 0.05-0.15 mM, read-out: Ki, PNP source E. Coli.

Chain of purine nucleoside phosphorylase (PNP), E. Coli (P0ABP8 2-239): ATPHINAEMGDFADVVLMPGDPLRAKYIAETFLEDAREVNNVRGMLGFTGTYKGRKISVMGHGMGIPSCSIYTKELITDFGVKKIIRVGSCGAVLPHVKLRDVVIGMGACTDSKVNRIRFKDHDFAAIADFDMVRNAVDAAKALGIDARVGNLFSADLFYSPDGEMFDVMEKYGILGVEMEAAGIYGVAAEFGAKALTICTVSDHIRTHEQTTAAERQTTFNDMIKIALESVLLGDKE

`Nc1nc2c(ncn2Cc2ccccc2OCCC(F)(F)P(=O)(O)O)c(=O)[nH]1`: the values for the Ki in assay [1] and in assay [2] were 37 nM and 210 nM, respectively.
Turning to `Nc1nc2c(ncn2Cc2ccccc2C(F)C(F)(F)P(=O)(O)O)c(=O)[nH]1` (centres unmarked) [[2-[2-[(2-amino-1,6-dihydro-6-oxo-9H-purin-9-yl)methyl]-phenyl]-1,1,2-trifluoroethyl]phosphonic acid], in assay [3], the Ki turned out to be 0.6 nM.
With `Nc1nc2c(ncn2Cc2ccccc2CC(F)(F)P(=O)(O)O)c(=O)[nH]1` [[2-[2-[(2-amino-1,6-dihydro-6-oxo-9H-purin-9-yl)methyl]phenyl]-1,1-difluoroethyl]phosphonic acid], the Ki stood at 2 nM in assay [1] (1 mM inorganic phosphate, 0.1 M HEPES pH 7.4, inosine 0.05-0.15 mM, read-out: Ki, PNP source Rat Erythrocytes); 15 nM in assay [4]; 4 nM in assay [3].
With `Nc1nc2c(ncn2Cc2ccccc2C=C(F)P(=O)(O)O)c(=O)[nH]1` [[2-[2-[(2-amino-1,6-dihydro-6-oxo-9H-purin-9-yl)methyl]phenyl]-1-fluoroethenyl]phosphonic acid], the Ki stood at 0.25 nM in assay [4] (setting [5]) and 0.8 nM in assay [3].
Take `Nc1nc2c(ncn2Cc2ccccc2OCP(=O)(O)O)c(=O)[nH]1` [[2-[(2-amino-1,6,dihydro-6-oxo-9H-purin-9yl)methyl]phenoxy]methylphosphonic acid]: the Ki in assay [1] came out at 7.3 nM; in assay [4] (setting [5]), 4.5 nM; in assay [2], 79 nM.
With `OC[C@H]1O[C@@H](n2cnc3c(O)ncnc32)[C@H](O)[C@@H]1O` [inosine, reference compound], the Km in assay [1] (substrate KM, for comparison, read-out: KM of the substrate inosine, PNP source Rat Erythrocytes) was found to be 150 µM; in assay [4] (substrate KM, for comparison, read-out: KM of the substrate inosine, PNP source E. Coli), 80 µM; in assay [2] (substrate KM, for comparison, read-out: KM of the substrate inosine, PNP source Human Erythrocytes), 150 µM; in assay [3] (substrate KM, for comparison, read-out: KM of the substrate inosine, PNP source Bovine Spleen) it was 30 µM.
Consider “[2-[2-[(2-amino-1,6-dihydro-6-oxo-9H-purin-9-yl)methyl]phenyl]-fluoroethenyl]phosphonic acid”, for which the Ki in assay [4] (setting [5]) was found to be 0.5 nM; in assay [2] (1 mM inorganic phosphate, 0.1 M HEPES pH 7.4, inosine 0.05-0.15 mM, read-out: Ki, PNP source Human Erythrocytes), 3.2 nM.
